This is an account of results in patent publication US11180474B2 (BRISTOL-MYERS SQUIBB COMPANY, priority 2016, dated 2021).

By IC50 is commonly meant the concentration at which inhibition is half-maximal. A high value points to lower potency.

Counter-ions that a name gives are not always drawn.

One experiment deals with T1, human TLR9 (Homo sapiens, UniProt Q9NR96).
T1 construct: host or cells: HEK-Blue cells
T1 sequence (Q9NR96 26-1032): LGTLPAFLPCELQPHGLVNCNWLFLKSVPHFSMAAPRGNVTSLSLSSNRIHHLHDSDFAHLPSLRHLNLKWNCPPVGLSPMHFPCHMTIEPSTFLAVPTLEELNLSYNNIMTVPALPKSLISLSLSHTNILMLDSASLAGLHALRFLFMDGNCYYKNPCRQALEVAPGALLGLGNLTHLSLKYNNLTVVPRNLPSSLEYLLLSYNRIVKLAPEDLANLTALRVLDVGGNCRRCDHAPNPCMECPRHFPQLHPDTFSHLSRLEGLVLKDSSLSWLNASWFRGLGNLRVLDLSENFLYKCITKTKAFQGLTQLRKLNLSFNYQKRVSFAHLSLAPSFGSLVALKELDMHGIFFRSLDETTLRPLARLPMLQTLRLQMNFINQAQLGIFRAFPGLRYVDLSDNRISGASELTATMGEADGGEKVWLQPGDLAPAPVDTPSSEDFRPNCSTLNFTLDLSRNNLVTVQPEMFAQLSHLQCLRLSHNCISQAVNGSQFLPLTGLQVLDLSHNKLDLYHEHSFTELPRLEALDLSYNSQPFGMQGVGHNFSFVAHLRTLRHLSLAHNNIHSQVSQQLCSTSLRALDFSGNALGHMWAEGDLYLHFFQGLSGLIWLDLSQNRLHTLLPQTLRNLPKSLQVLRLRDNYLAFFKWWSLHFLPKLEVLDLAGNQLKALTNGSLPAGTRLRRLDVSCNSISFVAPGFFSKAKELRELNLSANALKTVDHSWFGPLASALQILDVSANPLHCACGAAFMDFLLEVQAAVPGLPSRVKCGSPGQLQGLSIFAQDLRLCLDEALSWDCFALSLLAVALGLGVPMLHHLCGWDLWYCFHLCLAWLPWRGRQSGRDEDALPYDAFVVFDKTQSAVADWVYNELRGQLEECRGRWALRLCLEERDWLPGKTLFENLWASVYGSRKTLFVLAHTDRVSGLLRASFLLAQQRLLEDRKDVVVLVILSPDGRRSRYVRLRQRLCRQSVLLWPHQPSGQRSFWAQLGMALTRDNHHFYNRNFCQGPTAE
Description: TLR9 inhibition reporter assay (HEK-Blue cells, SEAP reporter, ODN2006 stimulation). Type of experiment: cell-based. Particulars: HEK-Blue cells overexpressing human TLR9, ODN2006 5 nM. As to the method:
(§1) TLR7/8/9 Inhibition Reporter Assays
HEK-Blue™-cells (Invivogen) overexpressing human TLR7, TLR8 or TLR9 receptors were used for screening inhibitors of these receptors using an inducible SEAP (secreted embryonic alkaline phosphatase) reporter gene under the control of the IFN-β minimal promoter fused to five NF-κB and AP-1-binding sites. Briefly, cells are seeded into Greiner 384 well plates (15000 cells per well for TLR7, 20,000 for TLR8 and 25,000 for TLR9) and then treated with test compounds in DMSO to yield a final dose response concentration range of 0.05 nM-50 μM. After a 30 minute compound pre-treatment at room temperature, the cells are then stimulated with a TLR7 ligand (gardiquimod at a final concentration of 7.5 μM), TLR8 ligand (R848 at a final concentration of 15.9 μM) or TLR9 ligand (ODN2006 at a final concentration of 5 nM) to activate NF-κB and AP-1 which induce the production of SEAP. After a 22 hour incubation at 37° C., 5% CO2, SEAP levels are determined with the addition of HEK-Blue™ Detection reagent (Invivogen), a cell culture medium that allows for detection of SEAP, according to manufacturer's specifications. The percent inhibition is determined as the % reduction in the HEK-Blue signal present in wells treated with agonist plus DMSO alone compared to wells treated with a known inhibitor.
A general note: Reporter assays use an easily measured gene product as a stand-in for the process of interest.

The next experiment addresses T2, human TLR7 (Homo sapiens, UniProt Q9NYK1).
T2 construct: host or cells: HEK-Blue cells
T2 sequence (Q9NYK1 27-1049): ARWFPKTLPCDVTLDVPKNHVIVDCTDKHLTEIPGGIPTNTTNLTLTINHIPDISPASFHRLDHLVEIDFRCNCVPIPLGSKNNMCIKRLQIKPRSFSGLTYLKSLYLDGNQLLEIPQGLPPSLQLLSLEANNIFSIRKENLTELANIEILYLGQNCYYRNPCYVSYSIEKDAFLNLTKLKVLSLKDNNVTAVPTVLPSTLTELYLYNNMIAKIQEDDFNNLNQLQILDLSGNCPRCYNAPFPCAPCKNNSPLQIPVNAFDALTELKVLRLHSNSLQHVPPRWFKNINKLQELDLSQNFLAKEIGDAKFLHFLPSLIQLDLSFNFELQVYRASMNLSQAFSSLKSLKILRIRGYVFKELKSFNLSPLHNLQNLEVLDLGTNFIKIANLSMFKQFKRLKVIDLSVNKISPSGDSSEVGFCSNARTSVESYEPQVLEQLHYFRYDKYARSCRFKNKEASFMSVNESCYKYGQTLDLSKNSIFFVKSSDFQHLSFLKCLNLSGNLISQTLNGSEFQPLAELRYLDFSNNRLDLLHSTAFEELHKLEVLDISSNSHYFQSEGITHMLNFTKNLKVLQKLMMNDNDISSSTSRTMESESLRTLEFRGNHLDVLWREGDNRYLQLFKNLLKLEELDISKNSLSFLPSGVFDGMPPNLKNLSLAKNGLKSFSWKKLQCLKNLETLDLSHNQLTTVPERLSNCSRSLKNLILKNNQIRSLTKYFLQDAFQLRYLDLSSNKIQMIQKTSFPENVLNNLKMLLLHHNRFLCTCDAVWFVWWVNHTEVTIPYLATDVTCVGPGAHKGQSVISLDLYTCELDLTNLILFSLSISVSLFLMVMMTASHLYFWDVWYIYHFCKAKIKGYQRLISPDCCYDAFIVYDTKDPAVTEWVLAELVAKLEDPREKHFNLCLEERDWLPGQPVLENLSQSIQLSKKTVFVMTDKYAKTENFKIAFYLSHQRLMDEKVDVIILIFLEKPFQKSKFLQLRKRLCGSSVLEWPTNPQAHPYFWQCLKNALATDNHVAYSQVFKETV
The experiment is described as follows: TLR7 inhibition reporter assay (HEK-Blue cells, SEAP reporter, gardiquimod stimulation). Particulars: HEK-Blue cells overexpressing human TLR7, gardiquimod 7.5 μM. Type of experiment: cell-based. As for the experimental part:
as §1
Briefly, cells are seeded into Greiner 384 well plates (15000 cells per well for TLR7, 20,000 for TLR8 and 25,000 for TLR9) and then treated with test compounds in DMSO to yield a final dose response concentration range of 0.05 nM-50 μM. […] After a 22 hour incubation at 37° C., 5% CO2, SEAP levels are determined with the addition of HEK-Blue™ Detection reagent (Invivogen), a cell culture medium that allows for detection of SEAP, according to manufacturer's specifications. The percent inhibition is determined as the % reduction in the HEK-Blue signal present in wells treated with agonist plus DMSO alone compared to wells treated with a known inhibitor.

Take `COc1ccc(-c2[nH]c3ccc(C4CCNCC4)cc3c2C)cc1OC` [Example 1, 2-(3,4-dimethoxyphenyl)-3-methyl-5-(piperidin-4-yl)-1H-indole hydrochloride]: the IC50 against human TLR9 amounted to 5910 nM. With `COc1ccc(-c2[nH]c3ccc(C4CCN(C5CCNCC5)CC4)cc3c2C)cc1OC` [Example 2, 5-([1,4′-bipiperidin]-4-yl)-2-(3,4-dimethoxyphenyl)-3-methyl-1H-indole dihydrochloride], the IC50 against human TLR7 stood at 985 nM; on human TLR9, 206 nM.

In the case of `COc1ccc(-c2[nH]c3ccc(C4CCN(Cc5cnc(C)[nH]5)CC4)cc3c2C)cc1OC` [Example 4, 2-(3,4-dimethoxyphenyl)-3-methyl-5-(1-((2-methyl-1H-imidazol-5-yl)methyl)piperidin-4-yl)-1H-indole], the half-maximal inhibitory concentration (IC50) against human TLR7 amounted to 3770 nM; against human TLR9, 190 nM. Regarding `COc1ccc(-c2[nH]c3ccc(C4CCN(CCCO)CC4)cc3c2C)cc1OC` [Example 5, 3-(4-(2-(3,4-dimethoxyphenyl)-3-methyl-1H-indol-5-yl)piperidin-1-yl)propan-1-ol], the IC50 at human TLR7 came out at 1710 nM; against human TLR9 it was 447 nM.

`COc1ccc(-c2[nH]c3ccc(C4CCN(C5COC5)CC4)cc3c2C)cc1OC` [Example 7, 2-(3,4-dimethoxyphenyl)-3-methyl-5-(1-(oxetan-3-yl)piperidin-4-yl)-1H-indole]: the half-maximal inhibitory concentration (IC50) against human TLR7 stood at 2160 nM; against human TLR9 it was 569 nM. For `COc1ccc(-c2[nH]c3ccc(C4CCN(C5CCN(c6ccccc6)C5)CC4)cc3c2C)cc1OC` (stereo not shown) [Example 8, 2-(3,4-dimethoxyphenyl)-3-methyl-5-(1-(1-phenylpyrrolidin-3-yl)piperidin-4-yl)-1H-indole], in that order: not below 50000 nM and not below 50000 nM. Take `COc1ccc(-c2[nH]c3ccc(C4CCN(C5CCN(C)CC5)CC4)cc3c2C)cc1OC` [Example 11, 2-(3,4-dimethoxyphenyl)-3-methyl-5-(1′-methyl-[1,4′-bipiperidin]-4-yl)-1H-indole]: the IC50 worked out at 934 nM against human TLR7 and 216 nM at human TLR9. For `COc1ccc(-c2[nH]c3ccc(C4CCN(C5CCN(C(C)=O)CC5)CC4)cc3c2C)cc1OC` [Example 12, 1-(4-(2-(3,4-dimethoxyphenyl)-3-methyl-1H-indol-5-yl)-[1,4′-bipiperidin]-1′-yl)ethan-1-one], in that order: 1340 nM and 649 nM. For `CCOC(=O)N1CCC(N2CCC(c3ccc4[nH]c(-c5ccc(OC)c(OC)c5)c(C)c4c3)CC2)C1` (stereo not shown) [Example 13, ethyl 3-(4-(2-(3,4-dimethoxyphenyl)-3-methyl-1H-indol-5-yl)piperidin-1-yl) pyrrolidine-1-carboxylate], in that order: not below 50000 nM and 1080 nM. On the same counts, the results for `COc1ccc(-c2[nH]c3ccc(C4CCN(Cc5csc(N)n5)CC4)cc3c2C)cc1OC` [Example 14, 4-((4-(2-(3,4-dimethoxyphenyl)-3-methyl-1H-indol-5-yl)piperidin-1-yl)methyl)thiazol-2-amine] are 2110 nM and 1090 nM. For the compound `COc1ccc(-c2[nH]c3ccc(C4CCN(Cc5cccc6ncccc56)CC4)cc3c2C)cc1OC` [Example 15, 5-((4-(2-(3,4-dimethoxyphenyl)-3-methyl-1H-indol-5-yl)piperidin-1-yl)methyl)quinoline], the concentration for half-maximal inhibition (IC50) against human TLR7 came to 8300 nM; at human TLR9, 602 nM.

For the compound `COc1ccc(-c2[nH]c3ccc(C4CCN(Cc5nccn5C)CC4)cc3c2C)cc1OC` [Example 16, 2-(3,4-dimethoxyphenyl)-3-methyl-5-(1-((1-methyl-1H-imidazol-2-yl)methyl)piperidin-4-yl)-1H-indole], on human TLR9, half-maximal inhibition (IC50) was put at 1970 nM.

For `COc1ccc(-c2[nH]c3ccc(C4CCN(CC5CCOCC5)CC4)cc3c2C)cc1OC` [Example 17, 2-(3,4-dimethoxyphenyl)-3-methyl-5-(1-((tetrahydro-2H-pyran-4-yl)methyl)piperidin-4-yl)-1H-indole], the IC50 against human TLR7 was determined as 368 nM; against human TLR9, 729 nM. For `COc1ccc(-c2[nH]c3ccc(C4CCN(Cc5ccc(N(C)C)c6ccccc56)CC4)cc3c2C)cc1OC` [Example 19, 4-((4-(2-(3,4-dimethoxyphenyl)-3-methyl-1H-indol-5-yl)piperidin-1-yl)methyl)-N,N-dimethylnaphthalen-1-amine], in that order: 10500 nM and 2550 nM. Regarding `COc1ccc(-c2[nH]c3ccc(C4CCN(C5CC(C)(C)N(C)C(C)(C)C5)CC4)cc3c2C)cc1OC` [Example 22, 2-(3,4-dimethoxyphenyl)-3-methyl-5-(1′,2′,2′,6′,6′-pentamethyl-[1,4′-bipiperidin]-4-yl)-1H-indole], the half-inhibitory concentration (IC50) against human TLR7 was determined as 1160 nM; on human TLR9 it was 1110 nM. Consider `COc1ccc(-c2[nH]c3ccc(C4CCN(C5CCCC(N(C)C)C5)CC4)cc3c2C)cc1OC` (stereo not shown) [Example 25, 3-(4-(2-(3,4-dimethoxyphenyl)-3-methyl-1H-indol-5-yl)piperidin-1-yl)-N,N-dimethylcyclohexan-1-amine], for which the half-inhibitory concentration (IC50) against human TLR7 stood at 317 nM; against human TLR9, 169 nM. On the same counts, the results for `COc1ccc(-c2[nH]c3ccc(C4CCN(C5CCN(C6CCOCC6)CC5)CC4)cc3c2C)cc1OC` [Example 26, 2-(3,4-dimethoxyphenyl)-3-methyl-5-(1′-(tetrahydro-2H-pyran-4-yl)-[1,4′-bipiperidin]-4-yl)-1H-indole] are 348 nM and 318 nM. For `COc1ccc(-c2[nH]c3ccc(C4CCN(C(C)c5ccccc5)CC4)cc3c2C)cc1OC` (stereo not shown) [Example 27, 2-(3,4-dimethoxyphenyl)-3-methyl-5-(1-(1-phenylethyl)piperidin-4-yl)-1H-indole], in that order: 850 nM and 2800 nM.
